Experimental data: US20130195866A1, “METHODS TO INHIBIT NEURODEGENERATION” (priority 2010, published 2013)
Ends that are not written are not given here.

Columns and labels:
C57BL/6J mice = assay: Neuronal morphology in intact brain of C57BL/6J mice after intracranial AAV injection; assay type: in vivo, mouse; conditions: live multiphoton imaging, compared with control vector
Procedure: Intracortical injections and surgery were performed as described previously (Spires et al., 2005; Kuchibhotla et al., 2008; Meyer-Luehmann et al., 2008). Briefly, mice were anesthetized with ketamine (10 mg/kg) and xylazine (1 mg/kg) and placed in a stereotaxic apparatus. The surgical site was sterilized with betadyne and isopropyl alcohol, and a 2-3 mm incision was made in the scalp along the midline between the ears. Burr holes were drilled in the skull, 0.5 mm posterior from bregma, and 0.5 mm lateral to the midsagittal line. Using a Hamilton syringe, 3 μl of virus (titer, 4.2×10^12 viral genomes/ml) was injected 1.2 mm deep in somatosensory cortex at a rate of 0.25 μl/min. After one injection in each burr hole, the scalp was sutured, and the mouse recovered from anesthesia on a heating pad.
Images of GFP-filled neuronal processes and, in the case of APP/PS1 mice, amyloid pathology, and blood vessels were obtained using a Bio-Rad 1024ES multiphoton microscope (Bio-Rad), mounted on an Olympus Optical BX50WI upright microscope. […] A mode-locked titanium/sapphire laser (MaiTai; Spectra Physics) generated two-photon fluorescence with 800 nm excitation, and detectors containing three photomultiplier tubes (Hamamatsu) collected emitted light in the range of 380-480, 500-540, and 560-650 nm (Bacskai et al., 2003). […]

[1] = test system: wild-type cultured neurons; assay: CaNCA overexpression-induced abnormal morphology in wild-type cultured neurons; assay type: cell-based, mouse; conditions: for spine density: 15 DIV primary neurons transfected with wtCaN+GFP or CaNCA+GFP (DMSO or VIVIT in medium) or CaNCA+GFP+AKAP79; for GFP-positive neurons with local neuritic dystrophies: of total GFP-positive neurons
Procedure: FIGS. 10A to 10H show wild-type cultured neurons overexpressing a constitutively active CaN construct, CaNCA, develop abnormal morphology that is a phenocopy of the AD effect. […] Wild-type cultured neurons were infected with AAV-CaNwt or AAV-CaNCA with or without AAV-flag-AKAP79 for twenty-four hours, and then the cell extracts were assayed for luciferase activity. The symbol “*” indicates a p-value of less than 0.05; Data are mean±SD (n=3 experiments each). FIGS. 10B to 10G show images and quantification results of neurodegenerative morphologies observed in wild-type cultured neurons overexpressing CaNCA or a vector. Overexpression of CaNCA, but not CaNwt or vector control, into wild-type cultures induces dendritic dystrophies (FIGS. 10B and 10C; arrows in FIG. 10B indicated local swelling of dendrites), simplification of dendritic arborization (FIGS. 10D and 10E), and spine loss (FIGS. 10F and 10G). […] The symbol “*” indicates a p-value of less than 0.05; The symbol “*” in FIG. 10E indicates a p-value of less than 0.05 (CaNwt vs CaNCA). Data are mean±SD from three independent experiments, each in triplicate. […] Neurons were transfected at 10DIV and analyzed at 14DIV. A decreased spines density spines is observed when CaCA is overexpressed (15.2±1.1) compared with wtCaN (25.9±2.1). This effect was blocked by cotransfection with AKAP79 (25.6±1.0) or by the addition of VIVIT (SEQ ID NO: 7) in the medium (22±1.7). The symbol “**” indicates a p-value of less than 0.001 (ANOVA) and less than 0.05 (post-hoc Student's test). n≧15.
(§1) To examine whether CaN activation is sufficient to cause these morphologic changes, even in the absence of overexpressed APP or exogenously applied Aβ, it was sought to investigate whether the expression of a constitutively-active CaN (CaNCA) can favor morphological changes in wild-type cultured neurons. An AAV vector encoding an HA-tagged CaNCA (AAV-CaNCA) or wild-type CaN (AAV-CaNwt) or an AAV vector control was expressed in cortical cultures. […] Neurons with swollen dendrites were barely detectable in CaNwt-overexpressing cultures, but they were prominently detected in CaNCA-overexpressing cultures (FIG. 10B). […] The latter is similar to the number of dystrophic neurites found in cultures expressing β-galactosidase, an AAV-vector control. Dendritic complexity (FIGS. 10D and 10E) and mean spine density (FIGS. 10F and 100) were reduced in neurons overexpressing CaNCA but not in CaNwt- or vector-overexpressing neurons.

NFAT [2] = assay: NFAT luciferase reporter assay in cultured neurons; assay type: cell-based, mouse; conditions: neurons overexpressing CaNCA, with or without AAV-flag-AKAP79, 24 h
Procedure: Luciferase reporter assay. CaNwt, CaNCA, or NFAT-TA-Luc (Clontech) was subcloned into AAV serotype 2 vector. These plasmids (1 μg) were used […] at 3 DIV. After 24 h, the cells were harvested and luciferase activities were measured with a luminometer using a reagent kit (Luciferase Assay System with Reporter Lysis Buffer; Promega). The background luciferase activity was subtracted from all experiments.
as §1

wild-type neurons = assay: Baseline maturation of wild-type neurons; assay type: cell-based, mouse; conditions: VIVIT 2 μM or DMSO
From the text: The findings presented herein indicate that nuclear accumulation of NFATc4 occurs in neurons from Tg cultures and in human AD postmortem brain and that Aβ-containing CM from Tg culture is capable of inducing CaN-mediated NFATc4 nuclear localization in wild-type neurons. […] Thus, inhibition of CaN-NFAT interaction and subsequent NFAT nuclear accumulation by VIVIT (SEQ ID NO: 7) blocks TgCM or APP overexpression-induced morphological abnormalities in culture.

calcineurin = conditions: Macian 2005; cited from earlier work
[3] = test system: wild-type cultured neurons growing in TgCM; assay: TgCM-induced morphological abnormalities in wild-type cultured neurons; assay type: cell-based, mouse
Tg2576 neurons = assay: APP overexpression-induced morphological abnormalities in Tg cultures at 21 DIV; assay type: cell-based, mouse
NFAT [4] = conditions: in vitro; Macian 2005; cited from earlier work
NFATc4 = NFATc4 nuclear translocation (nucleus/cytoplasm ratio) induced by TgCM in wild-type cultured neurons; assay type: cell-based, mouse; conditions: wild-type neurons treated with TgCM for 24 h; VIVIT 2 μM
Procedure: Immunocytochemistry was performed as described previously in Wu et al. (2004). Briefly, after being treated under different experimental conditions, cells were fixed with 4% paraformaldehyde in PBS, pH 7.4, for 15 min and were then membrane permeabilized with 0.5% Triton X-100 in PBS for 5 min. After blocking with 3% bovine serum albumin at 37° C. for 1 h, cells were incubated with primary antibodies: anti-microtubule-associated protein 2 (MAP2) antibody (1: 200; Sigma), or anti-NFATc4 antibody (1:200; Santa Cruz Biotechnology), anti-HA antibody (1:200; Invitrogen), or anti-Flag antibody (1:200; Sigma), at 4° C. overnight. […] Nuclear NFATc4 staining was determined by overlap of NFATc4 staining with Hoechst nuclear staining. […]
Soluble plaque-associated bioactive molecules, possibly assemblies of Aβ, may be responsible for the “halo” effect of neuritic change and [Ca^2+]i alterations near plaques (Kuchibhotla et al., 2008; Meyer-Luehmann et al., 2008; Koffie et al., 2009). […] (NFATc4 and MAP2 images used for quantification of nucleus/cytoplasm ratio of NFATc4 are not shown.) To better characterize the specific role of Aβ oligomers in CaN-mediated NFATc4 activation, nondenaturing size exclusion chromatography (SEC) was used to isolate the various Aβ species from TgCM. […]

[5] = wild-type neurons growing in TgCM, VIVIT 2 μM
[6] = Tg cultures at 21 DIV, compared with wild type

Substance	spine density (C57BL/6J mice)	spine density [1]	GFP-positive neurons with local neuritic dystrophies [1]	NFAT-luciferase activity (NFAT [2])	CaNCA overexpression-induced dendritic spine loss ([1]; wild-type cultured neurons overexpressing CaNCA)	number of neurons with dendritic dystrophies, dendritic processes and spine density (wild-type neurons)	competition for calcineurin binding (calcineurin)	spine density ([3]; primary neurons treated with TgCM for 24 h, 1 μM FK506, 2 μM VIVIT or AKAP79 transfection (FIG. 8I))	dendritic complexity (Sholl analysis) [3, 5]	dendritic spine density [3, 5]	number of neurons with dendritic dystrophies [3, 5]	dendritic complexity / dendritic attenuation (Tg2576 neurons; [6])	mean spine density / spine loss (Tg2576 neurons; [6])	number of neurons with dendritic dystrophies (Tg2576 neurons; [6])	overall morphology during maturation (Tg2576 neurons; Tg neurons, treatment from 3 DIV (3D6, AKAP79) or VIVIT vs DMSO)	NFAT dephosphorylation (NFAT [4])	nucleus/cytoplasm ratio of NFATc4 (NFATc4)
CaNwt: wild type mouse CaN expressed from an AAV vector	comparable with control vector-injected mice	25.9±2.1	6%														
CaNCA: constitutively active truncated 45 kDa form of mouse CaN (amino acid residues 1-399), expressed from an AAV vector	significantly decreased	15.2±1.1	Approximately 15%	significantly increased													
VIVIT: cell-permeable VIVIT peptide that blocks the docking sites for CaN-NFAT interaction (catalog #480401; Calbiochem) (also: 11R cell-penetrating tag, position and linkage not given here)		22±1.7			virtually eliminate	No significant changes	compete with NFAT proteins for calcineurin binding	restored	increased dendritic complexity	increased	reduced numbers of neurons with dendritic dystrophies	prevented	prevented	prevented	dramatically improved morphology	block NFAT dephosphorylation	abolished
